Test results: paper PMC6100082, “Pyridine-Ureas as Potential Anticancer Agents: Synthesis and In Vitro Biological Evaluation” (Molecules : A Journal of Synthetic Chemistry and Natural …, 2018)

Assays:
Format in all cases: cell-based, human
[1] = system: NCI 58 cell line panel; test: NCI one-dose SRB assay, whole panel / subpanel summary; conditions: One Dose Mean Graph, 1.00E-5 Molar
Description: (§1) The structures of all the newly prepared pyridine-ureas 8a–n were submitted to the National Cancer Institute (NCI) Developmental Therapeutic Program. Eight compounds 8b, 8d, 8e, 8i, 8j and 8l–n were selected to be examined for their in vitro growth inhibitory activity. The anticancer assays were carried out according to the protocol of the Drug Evaluation Branch, NCI, Bethesda. The selected pyridine-ureas were tested at one dose primary anticancer assay against a panel of approximately 58 cancer lines (concentration 10^−5 M). The tested human cancer cell lines emerged from nine different cancer subtypes: leukemia, colon, melanoma, ovarian, lung, CNS, renal, breast and prostate cancers. The sulforhodamine B (SRB) protein assay was adopted to estimate the cell viability and growth. The results were reported as mean-graph of the percentage growth of the treated cells, and presented as percentage growth inhibition (GI%) caused by the test compounds (Table 2).
(§2) The anticancer assays were performed in accordance with the protocol of the Drug Evaluation Branch, NCI, Bethesda. A 48 h drug exposure protocol was used and sulforhodamine B (SRB) protein assay was applied to estimate the cell viability and growth, as reported earlier.

[2] = system: CCRF-CEM; test: NCI one-dose SRB assay (Leukemia)
Description: as §1, §2

[3] = system: HL-60(TB); test: NCI one-dose SRB assay (Leukemia)
Description: as §1, §2

[4] = system: K-562; test: NCI one-dose SRB assay (Leukemia)
Description: as §1, §2

[5] = system: MOLT-4; test: NCI one-dose SRB assay (Leukemia)
Description: as §1, §2

[6] = system: RPMI-8226; test: NCI one-dose SRB assay (Leukemia)
Description: as §1, §2

[7] = system: SR; test: NCI one-dose SRB assay (Leukemia)
Description: as §1, §2

[8] = system: SF-268; test: NCI one-dose SRB assay (CNS Cancer)
Description: as §1, §2

[9] = system: SF-295; test: NCI one-dose SRB assay (CNS Cancer)
Description: as §1, §2

[10] = system: SF-539; test: NCI one-dose SRB assay (CNS Cancer)
Description: as §1, §2

[11] = system: SNB-19; test: NCI one-dose SRB assay (CNS Cancer)
Description: as §1, §2

[12] = system: SNB-75; test: NCI one-dose SRB assay (CNS Cancer)
Description: as §1, §2

[13] = system: U251; test: NCI one-dose SRB assay (CNS Cancer)
Description: as §1, §2

[14] = system: IGROV1; test: NCI one-dose SRB assay (Ovarian Cancer)
Description: as §1, §2

[15] = system: NCI/ADR-RES; test: NCI one-dose SRB assay (Ovarian Cancer)
Description: as §1, §2

[16] = system: OVCAR-3; test: NCI one-dose SRB assay (Ovarian Cancer)
Description: as §1, §2

[17] = system: OVCAR-4; test: NCI one-dose SRB assay (Ovarian Cancer)
Description: as §1, §2

[18] = system: OVCAR-5; test: NCI one-dose SRB assay (Ovarian Cancer)
Description: as §1, §2

[19] = system: OVCAR-8; test: NCI one-dose SRB assay (Ovarian Cancer)
Description: as §1, §2

[20] = system: SK-OV-3; test: NCI one-dose SRB assay (Ovarian Cancer)
Description: as §1, §2

[21] = system: 786-0; test: NCI one-dose SRB assay (Renal Cancer)
Description: as §1, §2

[22] = system: A498; test: NCI one-dose SRB assay (Renal Cancer)
Description: as §1, §2

[23] = system: RXF 393; test: NCI one-dose SRB assay (Renal Cancer)
Description: as §1, §2

[24] = system: SN12C; test: NCI one-dose SRB assay (Renal Cancer)
Description: as §1, §2

[25] = system: TK-10; test: NCI one-dose SRB assay (Renal Cancer)
Description: as §1, §2

[26] = system: UO-31; test: NCI one-dose SRB assay (Renal Cancer)
Description: as §1, §2

For “1-(4-Chloro-4-(trifluoromethyl)cyclohexa-2,5-dien-1-yl)-3-(6-(3,4-dimethoxyphenyl)-2-methylpyridin-3-yl)urea [Compound 8l]”, the “Mean Growth Percent” value [1] was 68.99%, the “Percentage growth inhibition (GI%)” value ([2]; 10 μM) was 45% and the “Growth Percent” value ([2]; 1.00E-5 Molar) was 55.04%. For the same substance, the “Percentage growth inhibition (GI%)” value ([3]; 10 μM) was 48%, the “Growth Percent” value ([3]; 1.00E-5 Molar) was 52.58% and the “Percentage growth inhibition (GI%)” value ([4]; K-562, 10 μM) was 51%. For the same substance, the “Growth Percent” value ([4]; K-562, 1.00E-5 Molar) was 49.47%, the “Percentage growth inhibition (GI%)” value ([5]; MOLT-4, 10 μM) was 57% and the “Growth Percent” value ([5]; MOLT-4, 1.00E-5 Molar) was 43.68%. The “Percentage growth inhibition (GI%)” value ([6]; RPMI-8226, 10 μM) was 57%, the “Growth Percent” value ([6]; RPMI-8226, 1.00E-5 Molar) was 43.88% and the “Percentage growth inhibition (GI%)” value ([7]; 10 μM) was 40%. For the same substance, the “Growth Percent” value ([7]; 1.00E-5 Molar) was 60.09%, the “Percentage growth inhibition (GI%)” value ([8]; SF-268, 10 μM) was 25% and the “Growth Percent” value ([8]; SF-268, 1.00E-5 Molar) was 75.77%. For the same substance, the “Percentage growth inhibition (GI%)” value ([9]; SF-295, 10 μM) was 29%, the “Growth Percent” value ([9]; SF-295, 1.00E-5 Molar) was 71.54% and the “Percentage growth inhibition (GI%)” value ([10]; SF-539, 10 μM) was 13%. The “Growth Percent” value ([10]; SF-539, 1.00E-5 Molar) was 87.81%, the “Percentage growth inhibition (GI%)” value ([11]; SNB-19, 10 μM) was 22% and the “Growth Percent” value ([11]; SNB-19, 1.00E-5 Molar) was 78.75%. The “Percentage growth inhibition (GI%)” value ([12]; SNB-75, 10 μM) was 20%, the “Growth Percent” value ([12]; SNB-75, 1.00E-5 Molar) was 80.45% and the “Percentage growth inhibition (GI%)” value ([13]; U251, 10 μM) was 45%. For the same substance, the “Growth Percent” value ([13]; U251, 1.00E-5 Molar) was 55.26%, the “Percentage growth inhibition (GI%)” value ([14]; IGROV1, 10 μM) was 17% and the “Growth Percent” value ([14]; IGROV1, 1.00E-5 Molar) was 83.06%. The “Percentage growth inhibition (GI%)” value ([15]; 10 μM) was 31%, the “Growth Percent” value ([15]; 1.00E-5 Molar) was 69.67% and the “Percentage growth inhibition (GI%)” value ([16]; OVCAR-3, 10 μM) was 43%. For the same substance, the “Growth Percent” value ([16]; OVCAR-3, 1.00E-5 Molar) was 57.00%, the “Percentage growth inhibition (GI%)” value ([17]; OVCAR-4, 10 μM) was 25% and the “Growth Percent” value ([17]; OVCAR-4, 1.00E-5 Molar) was 75.13%. The “Percentage growth inhibition (GI%)” value ([18]; OVCAR-5, 10 μM) was 15%, the “Growth Percent” value ([18]; OVCAR-5, 1.00E-5 Molar) was 85.15% and the “Percentage growth inhibition (GI%)” value ([19]; OVCAR-8, 10 μM) was 19%. For the same substance, the “Growth Percent” value ([19]; OVCAR-8, 1.00E-5 Molar) was 81.32%, the “Percentage growth inhibition (GI%)” value ([20]; SK-OV-3, 10 μM) was 16% and the “Growth Percent” value ([20]; SK-OV-3, 1.00E-5 Molar) was 84.22%. For the same substance, the “Percentage growth inhibition (GI%)” value ([21]; 786-0, 10 μM) was 25%, the “Growth Percent” value ([21]; 786-0, 1.00E-5 Molar) was 75.10% and the “Percentage growth inhibition (GI%)” value ([22]; A498, 10 μM) was 43%. The “Growth Percent” value ([22]; A498, 1.00E-5 Molar) was 57.69%, the “Percentage growth inhibition (GI%)” value ([23]; RXF 393, 10 μM) was 28% and the “Growth Percent” value ([23]; RXF 393, 1.00E-5 Molar) was 72.65%. For the same substance, the “Percentage growth inhibition (GI%)” value ([24]; 10 μM) was 22%, the “Growth Percent” value ([24]; 1.00E-5 Molar) was 78.52% and the “Percentage growth inhibition (GI%)” value ([25]; TK-10, 10 μM) was 12%. The “Growth Percent” value ([25]; TK-10, 1.00E-5 Molar) was 88.19%, the “Percentage growth inhibition (GI%)” value ([26]; UO-31, 10 μM) was 28% and the “Growth Percent” value ([26]; UO-31, 1.00E-5 Molar) was 72.37%.
